Source: the supplement of paper PMC10307832

What was measured:
Assay in all cases: relative viability (nuclei count vs DMSO), 5 days (fraction); higher = more cells survive
Quizartinib + Bortezomib = compound: CC(C)(C)c1cc(NC(=O)Nc2ccc(-c3cn4c(n3)sc3cc(OCCN5CCOCC5)ccc34)cc2)no1 [Quizartinib] + CC(C)C[C@H](NC(=O)[C@H](Cc1ccccc1)NC(=O)c1cnccn1)B(O)O [Bortezomib] (partner 0.002 µM)
Outline: (§1)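 Lung cancer cell lines, seeded in 1536-well plates, were treated the following day by pin tool with a single drug or with five library-drug doses (not always all listed) in √10 steps on top of a fixed anchor-drug dose. Cells were fixed and nuclei stained in one step after 5 days, and nuclei were counted. Relative viability is the nuclei count for treated wells divided by that for vehicle wells, reported as medians of duplicate plates.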

Quizartinib + Decitabine = compound: CC(C)(C)c1cc(NC(=O)Nc2ccc(-c3cn4c(n3)sc3cc(OCCN5CCOCC5)ccc34)cc2)no1 [Quizartinib] + Nc1ncn([C@H]2C[C@H](O)[C@@H](CO)O2)c(=O)n1 [Decitabine] (partner 2 µM)
Outline: as §1

YM155 + Luminespib = compound: COCC[n+]1c2c(n(Cc3cnccn3)c1C)C(=O)c1ccccc1C2=O [YM155] + CCNC(=O)c1noc(-c2cc(C(C)C)c(O)cc2O)c1-c1ccc(CN2CCOCC2)cc1 [Luminespib] (partner 0.01 µM)
Outline: as §1

YM155 + Dasatinib = compound: COCC[n+]1c2c(n(Cc3cnccn3)c1C)C(=O)c1ccccc1C2=O [YM155] + Cc1nc(Nc2ncc(C(=O)Nc3c(C)cccc3Cl)s2)cc(N2CCN(CCO)CC2)n1 [Dasatinib] (partner 0.075 µM)
Outline: as §1

HARA
relative viability (Quizartinib + Bortezomib; first compound 0.001 µM): 0.931
relative viability (Quizartinib + Bortezomib; first compound 0.003162 µM): 1.11
relative viability (Quizartinib + Bortezomib; first compound 0.01 µM): 1.15
relative viability (Quizartinib + Bortezomib; first compound 0.03162 µM): 1.07
relative viability (Quizartinib + Bortezomib; first compound 0.1 µM): 1.17
relative viability (Quizartinib + Decitabine; first compound 0.001 µM): 0.456
relative viability (Quizartinib + Decitabine; first compound 0.003162 µM): 0.518
relative viability (Quizartinib + Decitabine; first compound 0.01 µM): 0.743
relative viability (Quizartinib + Decitabine; first compound 0.03162 µM): 0.522
relative viability (Quizartinib + Decitabine; first compound 0.1 µM): 0.703
relative viability (YM155 + Luminespib; first compound 0.002 µM): 0.683
relative viability (YM155 + Luminespib; first compound 0.006325 µM): 0.906
relative viability (YM155 + Luminespib; first compound 0.02 µM): 0.95
relative viability (YM155 + Luminespib; first compound 0.06325 µM): 0.686
relative viability (YM155 + Dasatinib; first compound 0.002 µM): 0.161
relative viability (YM155 + Dasatinib; first compound 0.006325 µM): 0.278
relative viability (YM155 + Dasatinib; first compound 0.02 µM): 0.298
relative viability (YM155 + Dasatinib; first compound 0.06325 µM): 0.292

SK-LU-1
relative viability (Quizartinib + Bortezomib; first compound 0.001 µM): 0.95
relative viability (Quizartinib + Bortezomib; first compound 0.003162 µM): 1.12
relative viability (Quizartinib + Bortezomib; first compound 0.01 µM): 1.24
relative viability (Quizartinib + Bortezomib; first compound 0.03162 µM): 0.969
relative viability (Quizartinib + Bortezomib; first compound 0.1 µM): 1.2
relative viability (Quizartinib + Decitabine; first compound 0.001 µM): 0.592
relative viability (Quizartinib + Decitabine; first compound 0.003162 µM): 0.631
relative viability (Quizartinib + Decitabine; first compound 0.01 µM): 0.756
relative viability (Quizartinib + Decitabine; first compound 0.03162 µM): 0.717
relative viability (Quizartinib + Decitabine; first compound 0.1 µM): 0.66
relative viability (YM155 + Luminespib; first compound 0.002 µM): 0.183
relative viability (YM155 + Luminespib; first compound 0.006325 µM): 0.185
relative viability (YM155 + Luminespib; first compound 0.02 µM): 0.21
relative viability (YM155 + Luminespib; first compound 0.06325 µM): 0.223
relative viability (YM155 + Dasatinib; first compound 0.002 µM): 0.215
relative viability (YM155 + Dasatinib; first compound 0.006325 µM): 0.175
relative viability (YM155 + Dasatinib; first compound 0.02 µM): 0.185
relative viability (YM155 + Dasatinib; first compound 0.06325 µM): 0.206

NCI-H596
relative viability (Quizartinib + Bortezomib; first compound 0.001 µM): 1.15
relative viability (Quizartinib + Bortezomib; first compound 0.003162 µM): 0.92
relative viability (Quizartinib + Bortezomib; first compound 0.01 µM): 1.1
relative viability (Quizartinib + Bortezomib; first compound 0.03162 µM): 1.19
relative viability (Quizartinib + Bortezomib; first compound 0.1 µM): 1.2
relative viability (Quizartinib + Decitabine; first compound 0.001 µM): 1.03
relative viability (Quizartinib + Decitabine; first compound 0.003162 µM): 0.938
relative viability (Quizartinib + Decitabine; first compound 0.01 µM): 1.09
relative viability (Quizartinib + Decitabine; first compound 0.03162 µM): 0.993
relative viability (Quizartinib + Decitabine; first compound 0.1 µM): 0.901
relative viability (YM155 + Luminespib; first compound 0.002 µM): 1.06
relative viability (YM155 + Luminespib; first compound 0.006325 µM): 1.02
relative viability (YM155 + Luminespib; first compound 0.02 µM): 0.924
relative viability (YM155 + Luminespib; first compound 0.06325 µM): 1.27
relative viability (YM155 + Dasatinib; first compound 0.002 µM): 0.653
relative viability (YM155 + Dasatinib; first compound 0.006325 µM): 0.58
relative viability (YM155 + Dasatinib; first compound 0.02 µM): 0.544
relative viability (YM155 + Dasatinib; first compound 0.06325 µM): 0.692

UMC-11
relative viability (Quizartinib + Bortezomib; first compound 0.001 µM): 0.242
relative viability (Quizartinib + Bortezomib; first compound 0.003162 µM): 0.852
relative viability (Quizartinib + Bortezomib; first compound 0.01 µM): 0.875
relative viability (Quizartinib + Bortezomib; first compound 0.03162 µM): 0.769
relative viability (Quizartinib + Bortezomib; first compound 0.1 µM): 0.653
relative viability (Quizartinib + Decitabine; first compound 0.003162 µM): 0.708
relative viability (Quizartinib + Decitabine; first compound 0.01 µM): 0.638
relative viability (Quizartinib + Decitabine; first compound 0.03162 µM): 0.485
relative viability (Quizartinib + Decitabine; first compound 0.1 µM): 0.691
relative viability (YM155 + Luminespib; first compound 0.002 µM): 0.932
relative viability (YM155 + Luminespib; first compound 0.006325 µM): 1.08
relative viability (YM155 + Luminespib; first compound 0.02 µM): 1
relative viability (YM155 + Luminespib; first compound 0.06325 µM): 1.11
relative viability (YM155 + Dasatinib; first compound 0.002 µM): 0.374
relative viability (YM155 + Dasatinib; first compound 0.006325 µM): 0.49
relative viability (YM155 + Dasatinib; first compound 0.02 µM): 0.518
relative viability (YM155 + Dasatinib; first compound 0.06325 µM): 0.51

NCI-H1355
relative viability (Quizartinib + Bortezomib; first compound 0.001 µM): 1.07
relative viability (Quizartinib + Bortezomib; first compound 0.003162 µM): 1.28
relative viability (Quizartinib + Bortezomib; first compound 0.01 µM): 1.09
relative viability (Quizartinib + Bortezomib; first compound 0.03162 µM): 1.25
relative viability (Quizartinib + Bortezomib; first compound 0.1 µM): 1.28
relative viability (Quizartinib + Decitabine; first compound 0.001 µM): 0.346
relative viability (Quizartinib + Decitabine; first compound 0.003162 µM): 0.349
relative viability (Quizartinib + Decitabine; first compound 0.01 µM): 0.338
relative viability (Quizartinib + Decitabine; first compound 0.03162 µM): 0.331
relative viability (Quizartinib + Decitabine; first compound 0.1 µM): 0.36
relative viability (YM155 + Luminespib; first compound 0.002 µM): 0.633
relative viability (YM155 + Luminespib; first compound 0.006325 µM): 0.724
relative viability (YM155 + Luminespib; first compound 0.02 µM): 0.733
relative viability (YM155 + Luminespib; first compound 0.06325 µM): 0.683
relative viability (YM155 + Dasatinib; first compound 0.002 µM): 0.731
relative viability (YM155 + Dasatinib; first compound 0.006325 µM): 0.748
relative viability (YM155 + Dasatinib; first compound 0.02 µM): 0.781
relative viability (YM155 + Dasatinib; first compound 0.06325 µM): 0.801

NCI-H727
relative viability (Quizartinib + Bortezomib; first compound 0.001 µM): 0.656
relative viability (Quizartinib + Bortezomib; first compound 0.01 µM): 0.955
relative viability (Quizartinib + Bortezomib; first compound 0.03162 µM): 0.767
relative viability (Quizartinib + Bortezomib; first compound 0.1 µM): 0.833
relative viability (Quizartinib + Decitabine; first compound 0.001 µM): 0.781
relative viability (Quizartinib + Decitabine; first compound 0.003162 µM): 0.829
relative viability (Quizartinib + Decitabine; first compound 0.01 µM): 0.933
relative viability (Quizartinib + Decitabine; first compound 0.03162 µM): 0.831
relative viability (Quizartinib + Decitabine; first compound 0.1 µM): 1.29
relative viability (YM155 + Luminespib; first compound 0.002 µM): 0.588
relative viability (YM155 + Luminespib; first compound 0.006325 µM): 0.336
relative viability (YM155 + Luminespib; first compound 0.02 µM): 0.307
relative viability (YM155 + Luminespib; first compound 0.06325 µM): 0.665
relative viability (YM155 + Dasatinib; first compound 0.002 µM): 0.359
relative viability (YM155 + Dasatinib; first compound 0.006325 µM): 0.5
relative viability (YM155 + Dasatinib; first compound 0.02 µM): 0.389
relative viability (YM155 + Dasatinib; first compound 0.06325 µM): 0.352

NCI-H460
relative viability (Quizartinib + Bortezomib; first compound 0.001 µM): 0.881
relative viability (Quizartinib + Bortezomib; first compound 0.003162 µM): 0.987
relative viability (Quizartinib + Bortezomib; first compound 0.01 µM): 1.24
relative viability (Quizartinib + Bortezomib; first compound 0.1 µM): 0.68
relative viability (Quizartinib + Decitabine; first compound 0.003162 µM): 0.454
relative viability (Quizartinib + Decitabine; first compound 0.01 µM): 0.613
relative viability (Quizartinib + Decitabine; first compound 0.1 µM): 0.459
relative viability (YM155 + Luminespib; first compound 0.002 µM): 0.0266
relative viability (YM155 + Luminespib; first compound 0.006325 µM): 0.0307
relative viability (YM155 + Luminespib; first compound 0.02 µM): 0.035
relative viability (YM155 + Luminespib; first compound 0.06325 µM): 0.0204
relative viability (YM155 + Dasatinib; first compound 0.002 µM): 0.487
relative viability (YM155 + Dasatinib; first compound 0.006325 µM): 0.499
relative viability (YM155 + Dasatinib; first compound 0.02 µM): 0.582
relative viability (YM155 + Dasatinib; first compound 0.06325 µM): 0.547

NCI-H647
relative viability (Quizartinib + Bortezomib; first compound 0.001 µM): 0.91
relative viability (Quizartinib + Bortezomib; first compound 0.003162 µM): 1.08
relative viability (Quizartinib + Bortezomib; first compound 0.01 µM): 0.71
relative viability (Quizartinib + Bortezomib; first compound 0.03162 µM): 0.999
relative viability (Quizartinib + Bortezomib; first compound 0.1 µM): 1.29
relative viability (Quizartinib + Decitabine; first compound 0.001 µM): 0.32
relative viability (Quizartinib + Decitabine; first compound 0.003162 µM): 0.369
relative viability (Quizartinib + Decitabine; first compound 0.01 µM): 0.437
relative viability (Quizartinib + Decitabine; first compound 0.03162 µM): 0.405
relative viability (Quizartinib + Decitabine; first compound 0.1 µM): 0.549
relative viability (YM155 + Luminespib; first compound 0.002 µM): 0.151
relative viability (YM155 + Luminespib; first compound 0.006325 µM): 0.148
relative viability (YM155 + Luminespib; first compound 0.02 µM): 0.162
relative viability (YM155 + Luminespib; first compound 0.06325 µM): 0.106
relative viability (YM155 + Dasatinib; first compound 0.002 µM): 0.151
relative viability (YM155 + Dasatinib; first compound 0.006325 µM): 0.241
relative viability (YM155 + Dasatinib; first compound 0.02 µM): 0.192
relative viability (YM155 + Dasatinib; first compound 0.06325 µM): 0.149

HOP-62
relative viability (Quizartinib + Bortezomib; first compound 0.001 µM): 0.564
relative viability (Quizartinib + Bortezomib; first compound 0.003162 µM): 0.72
relative viability (Quizartinib + Bortezomib; first compound 0.01 µM): 0.73
relative viability (Quizartinib + Bortezomib; first compound 0.03162 µM): 0.517
relative viability (Quizartinib + Bortezomib; first compound 0.1 µM): 0.749
relative viability (Quizartinib + Decitabine; first compound 0.001 µM): 0.215
relative viability (Quizartinib + Decitabine; first compound 0.003162 µM): 0.219
relative viability (Quizartinib + Decitabine; first compound 0.01 µM): 0.217
relative viability (Quizartinib + Decitabine; first compound 0.03162 µM): 0.227
relative viability (Quizartinib + Decitabine; first compound 0.1 µM): 0.213
relative viability (YM155 + Luminespib; first compound 0.002 µM): 0.918
relative viability (YM155 + Luminespib; first compound 0.006325 µM): 0.907
relative viability (YM155 + Luminespib; first compound 0.02 µM): 0.938
relative viability (YM155 + Luminespib; first compound 0.06325 µM): 0.906
relative viability (YM155 + Dasatinib; first compound 0.002 µM): 0.673
relative viability (YM155 + Dasatinib; first compound 0.006325 µM): 0.64
relative viability (YM155 + Dasatinib; first compound 0.02 µM): 0.706
relative viability (YM155 + Dasatinib; first compound 0.06325 µM): 0.646
